Data: PubChem BioAssay (NCI)
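Test compounds were applied to cells in 96-well plates for 48 hours at 5 doses. TGI: concentration producing complete growth inhibition.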

What was measured:
Test in all cases: growth of human tumour cells (NCI), 48 h
786-0 renal = test system: 786-0 renal
A549 NSCLC = test system: A549 NSCLC
ACHN renal = test system: ACHN renal
BT-549 breast = test system: BT-549 breast
CAKI-1 renal = test system: CAKI-1 renal
CCRF-CEM leukemia = test system: CCRF-CEM leukemia
COLO 205 colon = test system: COLO 205 colon
DU-145 prostate = test system: DU-145 prostate
EKVX NSCLC = test system: EKVX NSCLC
HCC-2998 colon = test system: HCC-2998 colon
HCT-116 colon = test system: HCT-116 colon
HCT-15 colon = test system: HCT-15 colon
HL-60(TB) leukemia = test system: HL-60(TB) leukemia
HOP-62 NSCLC = test system: HOP-62 NSCLC
HOP-92 NSCLC = test system: HOP-92 NSCLC
HS 578T breast = test system: HS 578T breast
HT29 colon = test system: HT29 colon
IGROV1 ovarian = test system: IGROV1 ovarian
K-562 leukemia = test system: K-562 leukemia
KM12 colon = test system: KM12 colon
LOX IMVI melanoma = test system: LOX IMVI melanoma
M14 melanoma = test system: M14 melanoma
MALME-3M melanoma = test system: MALME-3M melanoma
MCF7 breast = test system: MCF7 breast
MDA-MB-231 breast = test system: MDA-MB-231 breast
MDA-MB-435 = test system: MDA-MB-435
MDA-N = test system: MDA-N
MOLT-4 leukemia = test system: MOLT-4 leukemia
NCI-H226 lung = test system: NCI-H226 lung
NCI-H23 lung = test system: NCI-H23 lung
NCI-H460 lung = test system: NCI-H460 lung
NCI-H522 lung = test system: NCI-H522 lung
NCI/ADR-RES ovarian = test system: NCI/ADR-RES ovarian
OVCAR-3 ovarian = test system: OVCAR-3 ovarian
OVCAR-4 ovarian = test system: OVCAR-4 ovarian
OVCAR-5 ovarian = test system: OVCAR-5 ovarian
OVCAR-8 ovarian = test system: OVCAR-8 ovarian
PC-3 prostate = test system: PC-3 prostate
RXF 393 renal = test system: RXF 393 renal
SF-268 CNS = test system: SF-268 CNS
SF-295 CNS = test system: SF-295 CNS
SF-539 CNS = test system: SF-539 CNS
SK-MEL-2 melanoma = test system: SK-MEL-2 melanoma
SK-MEL-28 melanoma = test system: SK-MEL-28 melanoma
SK-MEL-5 melanoma = test system: SK-MEL-5 melanoma
SK-OV-3 ovarian = test system: SK-OV-3 ovarian
SN12C renal = test system: SN12C renal
SNB-19 CNS = test system: SNB-19 CNS
SNB-75 CNS = test system: SNB-75 CNS
SW-620 colon = test system: SW-620 colon
T-47D breast = test system: T-47D breast
TK-10 renal = test system: TK-10 renal
U251 CNS = test system: U251 CNS
UACC-257 melanoma = test system: UACC-257 melanoma
UACC-62 melanoma = test system: UACC-62 melanoma
UO-31 renal = test system: UO-31 renal
A498 renal = test system: A498 renal
RPMI-8226 leukemia = test system: RPMI-8226 leukemia
SR leukemia = test system: SR leukemia

## Cc1ccc(C)c2c1CC(Cc1ccccc1C(=O)O)C2=O (stereo unspecified)
786-0 renal
  TGI: > 100 µM
A549 NSCLC
  TGI: > 100 µM
ACHN renal
  TGI: > 100 µM
BT-549 breast
  TGI: > 100 µM
CAKI-1 renal
  TGI: > 100 µM
CCRF-CEM leukemia
  TGI: > 100 µM
COLO 205 colon
  TGI: > 100 µM
DU-145 prostate
  TGI: > 100 µM
EKVX NSCLC
  TGI: > 100 µM
HCC-2998 colon
  TGI: > 100 µM
HCT-116 colon
  TGI: > 100 µM
HCT-15 colon
  TGI: > 100 µM
HL-60(TB) leukemia
  TGI: > 100 µM
HOP-62 NSCLC
  TGI: > 100 µM
HOP-92 NSCLC
  TGI: > 100 µM
HS 578T breast
  TGI: > 100 µM
HT29 colon
  TGI: > 100 µM
IGROV1 ovarian
  TGI: > 100 µM
K-562 leukemia
  TGI: > 100 µM
KM12 colon
  TGI: > 100 µM
LOX IMVI melanoma
  TGI: > 100 µM
M14 melanoma
  TGI: > 100 µM
MALME-3M melanoma
  TGI: > 100 µM
MCF7 breast
  TGI: > 100 µM
MDA-MB-231 breast
  TGI: > 100 µM
MDA-MB-435
  TGI: > 100 µM
MDA-N
  TGI: > 100 µM
MOLT-4 leukemia
  TGI: > 100 µM
NCI-H226 lung
  TGI: > 100 µM
NCI-H23 lung
  TGI: > 100 µM
NCI-H460 lung
  TGI: > 100 µM
NCI-H522 lung
  TGI: > 100 µM
NCI/ADR-RES ovarian
  TGI: > 100 µM
OVCAR-3 ovarian
  TGI: > 100 µM
OVCAR-4 ovarian
  TGI: > 100 µM
OVCAR-5 ovarian
  TGI: > 100 µM
OVCAR-8 ovarian
  TGI: > 100 µM
PC-3 prostate
  TGI: > 100 µM
RXF 393 renal
  TGI: > 100 µM
SF-268 CNS
  TGI: > 100 µM
SF-295 CNS
  TGI: > 100 µM
SF-539 CNS
  TGI: > 100 µM
SK-MEL-2 melanoma
  TGI: > 100 µM
SK-MEL-28 melanoma
  TGI: > 100 µM
SK-MEL-5 melanoma
  TGI: > 100 µM
SK-OV-3 ovarian
  TGI: > 100 µM
SN12C renal
  TGI: > 100 µM
SNB-19 CNS
  TGI: > 100 µM
SNB-75 CNS
  TGI: > 100 µM
SW-620 colon
  TGI: > 100 µM
T-47D breast
  TGI: > 100 µM
TK-10 renal
  TGI: > 100 µM
U251 CNS
  TGI: > 100 µM
UACC-257 melanoma
  TGI: > 100 µM
UACC-62 melanoma
  TGI: > 100 µM
UO-31 renal
  TGI: > 100 µM

## CC(O)C1(CNc2cc(Cl)nc(N)n2)CC(CCc2ccccc2)C1 (stereo unspecified)
786-0 renal
  TGI: 39 µM
A498 renal
  TGI: 27.3 µM
A549 NSCLC
  TGI: 31 µM
ACHN renal
  TGI: 22.2 µM
BT-549 breast
  TGI: 33.6 µM
CAKI-1 renal
  TGI: 29.4 µM
CCRF-CEM leukemia
  TGI: 94.5 µM
COLO 205 colon
  TGI: 28.8 µM
DU-145 prostate
  TGI: 35.9 µM
EKVX NSCLC
  TGI: 37.3 µM
HCT-116 colon
  TGI: 21.1 µM
HCT-15 colon
  TGI: 24 µM
HL-60(TB) leukemia
  TGI: 41.7 µM
HOP-62 NSCLC
  TGI: 27.3 µM
HOP-92 NSCLC
  TGI: 25 µM
HS 578T breast
  TGI: 38.4 µM
HT29 colon
  TGI: 25.7 µM
IGROV1 ovarian
  TGI: 28.4 µM
K-562 leukemia
  TGI: 86.4 µM
KM12 colon
  TGI: 27.7 µM
LOX IMVI melanoma
  TGI: 16.9 µM
M14 melanoma
  TGI: 33.4 µM
MALME-3M melanoma
  TGI: 26.4 µM
MCF7 breast
  TGI: 0.992 µM
MDA-MB-231 breast
  TGI: 22.5 µM
MDA-MB-435
  TGI: 26.6 µM
MDA-N
  TGI: 27.6 µM
MOLT-4 leukemia
  TGI: 56 µM
NCI-H226 lung
  TGI: 30.8 µM
NCI-H23 lung
  TGI: 19.4 µM
NCI-H460 lung
  TGI: 27.7 µM
NCI-H522 lung
  TGI: 21.8 µM
NCI/ADR-RES ovarian
  TGI: 21.8 µM
OVCAR-3 ovarian
  TGI: 33.7 µM
OVCAR-4 ovarian
  TGI: 23.3 µM
OVCAR-5 ovarian
  TGI: 33.9 µM
OVCAR-8 ovarian
  TGI: 32 µM
PC-3 prostate
  TGI: 25.3 µM
RPMI-8226 leukemia
  TGI: 43.1 µM
RXF 393 renal
  TGI: 30.8 µM
SF-268 CNS
  TGI: 29.4 µM
SF-295 CNS
  TGI: 27.6 µM
SF-539 CNS
  TGI: 32.6 µM
SK-MEL-2 melanoma
  TGI: 31.7 µM
SK-MEL-28 melanoma
  TGI: 27.8 µM
SK-MEL-5 melanoma
  TGI: 19.7 µM
SK-OV-3 ovarian
  TGI: 29.2 µM
SN12C renal
  TGI: 20.9 µM
SNB-19 CNS
  TGI: 34 µM
SNB-75 CNS
  TGI: 40 µM
SR leukemia
  TGI: 35.8 µM
SW-620 colon
  TGI: 29.3 µM
T-47D breast
  TGI: 44.1 µM
TK-10 renal
  TGI: 43.1 µM
U251 CNS
  TGI: 27.6 µM
UACC-257 melanoma
  TGI: 19.8 µM
UACC-62 melanoma
  TGI: 24.5 µM
UO-31 renal
  TGI: 24.6 µM

## COCn1c(C)c(C)c2c(=O)oc(N(C)C)nc21
786-0 renal
  TGI: > 100 µM
A498 renal
  TGI: > 100 µM
A549 NSCLC
  TGI: > 100 µM
ACHN renal
  TGI: > 100 µM
BT-549 breast
  TGI: > 100 µM
CAKI-1 renal
  TGI: > 100 µM
CCRF-CEM leukemia
  TGI: > 100 µM
COLO 205 colon
  TGI: > 100 µM
DU-145 prostate
  TGI: > 100 µM
EKVX NSCLC
  TGI: > 100 µM
HCC-2998 colon
  TGI: > 100 µM
HCT-116 colon
  TGI: > 100 µM
HCT-15 colon
  TGI: > 100 µM
HL-60(TB) leukemia
  TGI: > 100 µM
HOP-62 NSCLC
  TGI: > 100 µM
HOP-92 NSCLC
  TGI: > 100 µM
HS 578T breast
  TGI: > 100 µM
HT29 colon
  TGI: > 100 µM
IGROV1 ovarian
  TGI: > 100 µM
K-562 leukemia
  TGI: > 100 µM
KM12 colon
  TGI: > 100 µM
LOX IMVI melanoma
  TGI: > 100 µM
M14 melanoma
  TGI: > 100 µM
MALME-3M melanoma
  TGI: > 100 µM
MCF7 breast
  TGI: > 100 µM
MDA-MB-231 breast
  TGI: > 100 µM
MDA-MB-435
  TGI: > 100 µM
MDA-N
  TGI: > 100 µM
MOLT-4 leukemia
  TGI: > 100 µM
NCI-H226 lung
  TGI: > 100 µM
NCI-H23 lung
  TGI: > 100 µM
NCI-H460 lung
  TGI: > 100 µM
NCI-H522 lung
  TGI: > 100 µM
NCI/ADR-RES ovarian
  TGI: > 100 µM
OVCAR-4 ovarian
  TGI: > 100 µM
OVCAR-5 ovarian
  TGI: > 100 µM
OVCAR-8 ovarian
  TGI: > 100 µM
PC-3 prostate
  TGI: > 100 µM
RPMI-8226 leukemia
  TGI: > 100 µM
RXF 393 renal
  TGI: > 100 µM
SF-295 CNS
  TGI: > 100 µM
SF-539 CNS
  TGI: > 100 µM
SK-MEL-2 melanoma
  TGI: > 100 µM
SK-MEL-28 melanoma
  TGI: > 100 µM
SK-MEL-5 melanoma
  TGI: > 100 µM
SK-OV-3 ovarian
  TGI: > 100 µM
SN12C renal
  TGI: > 100 µM
SNB-19 CNS
  TGI: > 100 µM
SNB-75 CNS
  TGI: > 100 µM
SR leukemia
  TGI: > 100 µM
SW-620 colon
  TGI: > 100 µM
T-47D breast
  TGI: > 100 µM
TK-10 renal
  TGI: > 100 µM
U251 CNS
  TGI: > 100 µM
UACC-257 melanoma
  TGI: > 100 µM
UACC-62 melanoma
  TGI: > 100 µM
UO-31 renal
  TGI: > 100 µM
